One block for each compound: values may come before it.
Key:
PDE3 = biological target: T1, PDE3 (Canis lupus familiaris, UniProt A0A8I3NYE0); assay: PDE assay, PDE3 enzyme solution from dog ventricle; type: biochemical, mixed-breed dog
T1 sequence (A0A8I3NYE0 1-1135): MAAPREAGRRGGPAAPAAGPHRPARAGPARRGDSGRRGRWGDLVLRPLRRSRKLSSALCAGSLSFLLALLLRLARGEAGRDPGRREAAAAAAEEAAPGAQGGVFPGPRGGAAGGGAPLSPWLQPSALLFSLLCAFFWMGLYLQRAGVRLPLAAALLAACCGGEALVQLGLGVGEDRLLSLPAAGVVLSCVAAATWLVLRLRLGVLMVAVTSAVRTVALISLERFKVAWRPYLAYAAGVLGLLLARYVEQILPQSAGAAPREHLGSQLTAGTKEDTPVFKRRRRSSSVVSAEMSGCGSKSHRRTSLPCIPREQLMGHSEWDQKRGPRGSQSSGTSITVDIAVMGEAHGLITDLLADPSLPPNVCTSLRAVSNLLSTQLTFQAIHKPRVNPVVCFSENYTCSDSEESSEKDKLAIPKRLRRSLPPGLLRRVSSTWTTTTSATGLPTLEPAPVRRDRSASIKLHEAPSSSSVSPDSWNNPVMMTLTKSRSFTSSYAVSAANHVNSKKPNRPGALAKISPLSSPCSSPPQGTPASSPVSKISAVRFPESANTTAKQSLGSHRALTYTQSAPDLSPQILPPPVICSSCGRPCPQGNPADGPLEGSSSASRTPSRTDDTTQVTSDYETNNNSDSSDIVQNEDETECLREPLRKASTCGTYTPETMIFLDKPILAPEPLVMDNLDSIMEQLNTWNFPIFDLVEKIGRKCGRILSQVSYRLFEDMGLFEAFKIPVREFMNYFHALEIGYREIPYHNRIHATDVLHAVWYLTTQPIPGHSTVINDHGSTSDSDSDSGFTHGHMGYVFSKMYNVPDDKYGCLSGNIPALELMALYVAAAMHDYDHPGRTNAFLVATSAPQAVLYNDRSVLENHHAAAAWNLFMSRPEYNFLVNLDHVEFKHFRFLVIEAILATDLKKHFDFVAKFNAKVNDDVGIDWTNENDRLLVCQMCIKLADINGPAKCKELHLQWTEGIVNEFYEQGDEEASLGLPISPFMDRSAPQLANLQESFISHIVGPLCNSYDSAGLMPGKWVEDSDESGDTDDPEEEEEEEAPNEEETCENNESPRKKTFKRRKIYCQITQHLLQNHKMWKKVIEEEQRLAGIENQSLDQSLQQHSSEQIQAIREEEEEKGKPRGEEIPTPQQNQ
Procedure: Apex portion of ventricle of mixed-breed dog (Oriental Yeast) was excised, and washed with 500 ml of ice-cold saline three times. Subsequently, the tissues were cut into about 3 g, and it was frozen by liquid nitrogen, and stored at −80° C. To about 1 g of this tissue sample was added 10 ml of an ice-cold homogenization buffer II, and the resultant mixture was homogenized by Polytron homogenizer for 3 minutes. The homogenate was centrifuged at 8000 rpm, at 4° C. for 20 minutes, and the obtained supernatant was further centrifuged by an ultracentrifuge at 40000 rpm, at 4° C. for 60 minutes. The resultant supernatant was stored at 4° C.
(§1) This supernatant was applied to chromatography under the FPLC system, in the same manner as in Example 1 (1) above. […]
Subsequently, the eluted fractions were used as an enzyme solution for PDE assay, and cGMP-hydrolyzing activity was measured. Further, cAMP-hydrolyzing activity was measured for respective fractions, in the presence or absence of unlabeled cGMP. […]

PDE4 = assay: PDE assay, PDE4 enzyme solution from dog lung; type: biochemical, mixed-breed dog
Procedure: These fractions were collected and glycerol was added thereto to become 50%, and the mixture was stored at −20° C.

PDE2 = biological target: T2, PDE2 (Bos taurus, UniProt P14099); assay: PDE assay, PDE2 enzyme solution from bovine adrenal gland; type: biochemical, Japanese Black Cattle
T2 construct: tissue Tokyo Shibaura Zoki; host or cells: bovine adrenal gland, soluble fraction, ion-exchange fractions
T2 sequence (P14099 1-921): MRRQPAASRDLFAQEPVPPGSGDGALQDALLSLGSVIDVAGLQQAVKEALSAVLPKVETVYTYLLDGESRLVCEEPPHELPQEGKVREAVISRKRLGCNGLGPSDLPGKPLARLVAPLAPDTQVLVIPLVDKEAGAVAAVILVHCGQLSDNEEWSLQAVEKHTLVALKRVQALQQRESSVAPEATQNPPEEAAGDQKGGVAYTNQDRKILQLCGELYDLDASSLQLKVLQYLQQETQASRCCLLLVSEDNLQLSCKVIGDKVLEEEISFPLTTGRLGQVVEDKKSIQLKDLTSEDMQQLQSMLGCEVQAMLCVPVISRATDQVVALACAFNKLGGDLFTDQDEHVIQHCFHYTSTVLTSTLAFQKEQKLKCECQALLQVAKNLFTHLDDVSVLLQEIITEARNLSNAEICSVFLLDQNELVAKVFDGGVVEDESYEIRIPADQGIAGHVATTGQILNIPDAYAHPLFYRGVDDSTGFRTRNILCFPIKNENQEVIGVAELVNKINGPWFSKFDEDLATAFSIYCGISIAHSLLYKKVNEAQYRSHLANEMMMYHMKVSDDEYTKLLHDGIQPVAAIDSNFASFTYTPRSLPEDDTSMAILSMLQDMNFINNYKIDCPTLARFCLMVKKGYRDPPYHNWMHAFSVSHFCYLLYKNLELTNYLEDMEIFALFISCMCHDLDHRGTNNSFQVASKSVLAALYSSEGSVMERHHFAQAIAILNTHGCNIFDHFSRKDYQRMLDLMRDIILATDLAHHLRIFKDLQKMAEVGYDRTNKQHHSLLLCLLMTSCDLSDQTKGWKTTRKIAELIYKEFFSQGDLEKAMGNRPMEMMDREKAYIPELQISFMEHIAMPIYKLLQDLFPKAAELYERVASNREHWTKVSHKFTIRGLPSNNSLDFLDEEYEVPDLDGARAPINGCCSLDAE
Procedure: One adrenal gland of Japanese Black Cattle, purchased from Tokyo Shibaura Zoki, co., Ltd. was washed with 100 ml of ice-cold saline (0.9% sodium chloride) twice. Subsequently, the tissues were cut into about 1 gram, and it was frozen by liquid nitrogen. To about 2 g of this tissue sample was added 10 ml of an ice-cold homogenization buffer II (25 mM Tris-HCl, pH 7.5, 4 mM magnesium chloride, 0.5 mM EGTA, 2 mM dithiothreitol, 4 mM benzamidine, 0.1 mM phenylmethylsulfonyl fluoride), and the homogenate that was homogenized by Polytron homogenizer for 3 minutes was centrifuged at 8000 rpm, at 4° C. for 20 minutes, and the obtained supernatant was further centrifuged by an ultracentrifuge at 50000 rpm, at 4° C. for 60 minutes. The resultant supernatant was stored at 4° C.
as §1
Subsequently, the eluted fractions were used as an enzyme solution for PDE assay, and cGMP-hydrolyzing activity was measured. Or, cAMP-hydrolyzing activity was measured for respective fractions, in the presence or absence of unlabeled cGMP. […]

PDE1 = assay: PDE assay, PDE1 enzyme solution from rat ventricle; type: biochemical, SD rat; settings: E4021 100 nM
Procedure: Ventricle was excised from SD rat anesthetized with sodium pentobarbital (Nihon SLC, about 300 g), and washed with 100 ml of ice-cold saline 3 times. After the tissues were cut in approximately 1 g, it was frozen by liquid nitrogen, and stored at −80° C.
To about 5 g of this tissue sample was added 16 ml of an ice-cold homogenization buffer I, and the resultant mixture was homogenized by Polytron homogenizer for 3 minutes. The homogenate was centrifuged at 8000 rpm, at 4° C. for 20 minutes, and the obtained supernatant was further centrifuged by an ultracentrifuge at 50000 rpm, at 4° C. for 60 minutes. The resultant supernatant was stored at 4° C. […]
Subsequently, the eluted fractions were used as an enzyme solution for PDE assay. […] (final concentration of 1 mM) or calcium chloride (final concentration of 2 mM) and calmodulin (40 unit s/ml), and cGMP-hydrolyzing activity was measured.
For these PDE1 containing fractions, cGMP hydrolyzing activities were analyzed in the presence of E4021 (100 nM), PDE5 specific inhibitor, it was shown that the cGMP-hydrolyzing activities in these fractions were not inhibited by E4021. […]
Further, in the presence or absence of unlabeled cGMP, cAMP-PDE activities were measured for each of the fractions. […]
Still further, in the presence of rolipram (10 μm), the PDE4 specific inhibitor, cAMP hydrolyzing activities were measured for each of the fractions. […]

PDE5 = biological target: T3, PDE5 (Canis lupus familiaris, UniProt O77746); assay: PDE assay, PDE5 enzyme solution from canine lung; type: biochemical
T3 construct: These were used as a PDE5 enzyme solution for PDE assay; tissue Oriental Yeast (animals); host or cells: canine lung, soluble fraction, DEAE Sepharose fractions
Procedure: In the same manner as in (1-4) above, the supernatant obtained from the homogenate of canine lung tissue was applied to chromatography under FLPC system, to collect eluted fractions of 2 ml each.
Subsequently, the eluted fractions were used as an enzyme solution for PDE assay, and cGMP-hydrolyzing activity was measured for respective fractions, in the presence or absence of E4021, the PDE5 specific inhibitor.
Further, for examining contamination of PDE1, which is adjacently eluted, cGMP-hydrolyzing PDE activity of the respective fractions were measured in the same assay buffer containing EGTA (final concentration of 1 mM) [or calcium chloride (final concentration of 2 mM) and calmodulin (40 units/ml)].
These fractions were collected and glycerol was added thereto to become 50%, and the mixture was stored at −20° C. These were used as a PDE5 enzyme solution for PDE assay.

SMILES: Cc1[nH]c(=O)c(C#N)cc1-c1ccncc1 [milrinone]
PDE activity of PDE3 enzyme solution in the presence of inhibitor (PDE3): inhibited

SMILES: COc1ccc(C2CNC(=O)C2)cc1OC1CCCC1 (centres unmarked) [rolipram, reference compound]
PDE activity of PDE4 enzyme solution in the presence of inhibitor (PDE4): inhibited

SMILES: CCCCCC[C@@H]([C@@H](C)O)n1cnc2c(N)ncnc21 (racemic) [EHNA, erythro-9-(2-hydroxy-3-nonyl)adenine, reference compound]
PDE activity of PDE2 enzyme solution in the presence of inhibitor (PDE2): inhibited

Other lines, results leading:

cGMP-hydrolyzing activity of PDE1 containing fractions in the presence of inhibitor (PDE1): not inhibited
SMILES: O=C(O)C1CCN(c2nc(NCc3ccc4c(c3)OCO4)c3cc(Cl)ccc3n2)CC1 [Compound E4021, reference compound]

PDE activity of PDE5 enzyme solution in the presence of inhibitor (PDE5): inhibited
SMILES: CCCc1nn(C)c2c(=O)[nH]c(-c3cc(S(=O)(=O)N4CCN(C)CC4)ccc3OCC)nc12 [sildenafil, reference compound]

— patent US8338420B1, “Treatment of Parkinson's disease and enhancement of dopamine signal using PDE 10 inhibitor” (Mitsubishi Tanabe Pharma Corporation, priority 2002, dated 2012)
